From patent US11472776B2, “Quinazolinones that inhibit the formation of tau oligomers and their method of use” (OLIGOMERIX INC., priority 2016, dated 2022)
pIC50: −log10 of the molar value. Where a name gives a salt, the structure may show the parent alone.

Tests used:
[1] = target: T1, recombinant human tau 4R2N (Homo sapiens (Human), UniProt P10636); experiment: AlphaLisa Assay (ALA), primary screen for inhibition of tau oligomer formation; format: biochemical; conditions: tau target 300 nM, 4 hours at room temperature, compound 0.098 uM-50 uM
T1 sequence (P10636 other isoform, or with tags, fused parts or gaps): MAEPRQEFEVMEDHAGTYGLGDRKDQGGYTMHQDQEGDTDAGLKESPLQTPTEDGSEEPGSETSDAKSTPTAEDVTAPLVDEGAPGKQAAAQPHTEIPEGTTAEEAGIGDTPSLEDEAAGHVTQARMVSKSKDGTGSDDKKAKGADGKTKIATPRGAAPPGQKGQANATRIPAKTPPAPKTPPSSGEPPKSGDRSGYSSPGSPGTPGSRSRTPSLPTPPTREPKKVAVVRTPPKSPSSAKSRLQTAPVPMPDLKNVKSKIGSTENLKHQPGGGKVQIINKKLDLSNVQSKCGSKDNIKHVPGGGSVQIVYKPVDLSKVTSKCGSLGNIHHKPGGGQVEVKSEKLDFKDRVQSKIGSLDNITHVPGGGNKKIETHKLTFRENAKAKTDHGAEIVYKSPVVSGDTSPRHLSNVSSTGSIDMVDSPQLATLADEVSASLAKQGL
Text: (§1) Bacterial recombinant human tau 4R2N (the largest isoform of tau in the central nervous system, 441 amino acids in length, Seq. ID 1) constructs with either 6×-His or StrepII N-terminal epitope tags were purified from bacterial lysate using denaturing conditions to prepare tau in its monomeric form.
ALA Assay: AlphaLisa Assay (ALA) was used as a primary screen for identifying compounds that inhibit tau oligomer formation. It is a bead based assay that only gives signal when the beads are in close proximity to each other. When the tau monomer (target) is incubated it forms higher order aggregates (dimer, trimer, tetramer, etc) so that when the donor and acceptor beads bind to the epitope tags of tau they are in close proximity and generate signal.
Tau target (equal mixture of each construct at 300 nM) was prepared in buffer (Tris-HCl pH 7.4) and was incubated in 96-well plates at room temperature for 4 hours with vehicle control (DMSO) and a dose range of a compound of the disclosure (0.098 uM-50 uM). […] The positive control (non-incubated target) & blank (no tau) were prepared and mixed with beads in bead buffer and the plate was read immediately using the EnVision plate reader (Perkin Elmer).

[2] = target: T1, recombinant human tau 4R2N; experiment: Confirmatory Assay (CONFA), SDS-PAGE quantification of tau monomer and oligomers; format: biochemical; conditions: tau target 300 nM, 3 hours at room temperature, compound 0.098 uM-50 uM
Method: as §1
CONFA Assay: Confirmatory Assay (CONFA) used as a secondary screen for confirming the mechanism of action of compounds identified as hits using the ALA assay. The assay is performed using a similar procedure as ALA except that it utilizes SDS-PAGE for visualization and quantification of tau monomer and aggregated species (dimer, trimer, tetramer, pentamer, etc.). Only a single construct of tau without epitope tags is necessary, but the assay can use the same target prepared for the ALA assay also.
For the CONFA assay, Tau target (300 nM) was prepared in buffer (Tris-HCl pH 7.4) and was incubated at room temperature for 3 hours with vehicle control (DMSO) and a dose range of a compound of the disclosure (0.098 uM-50 uM). […] AlphaView software (Protein Simple) was used for quantification of tau monomer and oligomers.

insoluble tau aggregates = experiment: Reduction of insoluble tau aggregates in the brains of treated htau mice; format: in vivo
Method: (§2) Four groups of htau mice (n=25 per group) were treated from 2.5 to 6.5 months of age with 0, 10, 40 and 100 mg/kg of the compound of Example 20 milled into feed. The study was performed independently and blinded. The primary endpoint of the study was reduction of insoluble tau aggregates in the brains of the mice with statistical significance. […] Methods for biochemical analyses of tau used in this study have been previously described (Acker CM et al. Sensitive quantitative assays for tau and phospho-tau in transgenic mouse models. Neurobiol Aging. 2013. 34:338). The results in FIG. 1 show in vivo efficacy of the compound in reducing tau pathology. Levels of insoluble tau in the cortices of htau mice treated with the compound of Example 20 were determined using the pan-tau monoclonal antibody (mAb) DA31. These values were normalized to total tau in the lysates of the cortex of each mouse. Error bars indicate standard error of the mean. The P values of comparisons of the groups treated with 10, 40 or 100 mg/kg of the compound of Example 20 to the control group (white bar, 0 mg/kg) are 0.0503 (horizontal hatch bar, 10 mg/kg), 0.0154 (diagonal hatch bar, 40 mg/kg) and 0.0488 (vertical hatch bar, 100 mg/kg). * indicates P value <0.05.

[3] = Tolerability over the course of the htau mouse study; format: in vivo; conditions: all doses (10, 40, 100 mg/kg in feed), htau mice
Method: as §2

Row | SMILES | pIC50 [1] | pIC50 [2] | reduction of insoluble tau, statistical significance (insoluble tau aggregates; 40 mg/kg and 100 mg/kg doses, male htau mice) | in vivo activity: reduction of insoluble tau aggregates in the brains of treated htau mice (insoluble tau aggregates; FIG. 1 legend) | reduction of insoluble tau (insoluble tau aggregates; htau mice, 10, 40 and 100 mg/kg milled into feed, from 2.5 to 6.5 months of age) | tolerability over the course of the study [3] | toxic effects on weight, behavior or morbidity [3]
1 | CCc1ccc(-n2c(-c3cccnc3)nc3ccccc3c2=O)cc1O [Ex. 1, 3-(4-Ethyl-3-hydroxyphenyl)-2-(pyridin-3-yl)quinazolin-4(3H)-one] | 5.72 | 5.38 |  |  |  |  | 
2 | Cc1ccc(-n2c(-c3cccnc3)nc3ccccc3c2=O)cc1O [Ex. 20, 3-(4-Methyl-3-Hydroxyphenyl)-2-(Pyridin-3-yl)Quinazolin-4(3H)-One Hydrochloride] |  |  | achieved with statistical significance | achieved with statistical significance | reduced insoluble tau at all doses | well tolerated | did not cause toxic effects on weight, behavior or morbidity
